Assay results reported in patent US6764682B1, “Adjuvant compositions containing more than one adjuvant” (priority 1994, dated 2004).

How the values were obtained:
Type in all cases: in vivo
[1] = test system: peptide-specific IgG antibodies; experiment: Guinea pig antibody responses to synthetic peptides formulated with different adjuvants (peptide-specific ELISA); conditions: mean titer of three guinea pigs, three injections
CLTB-36 = experiment: Guinea pig antibody response to CLTB-36 in different adjuvants, ELISA titer against CLTB-36; conditions: guinea pigs (n = 3) immunized with 20 μg CLTB-36 in the named adjuvant; boosters at 2, 4 and 6 weeks
CLTB-56 = experiment: Guinea pig antibody response to CLTB-36 in different adjuvants, ELISA titer against CLTB-56; conditions: guinea pigs (n = 3) immunized with 20 μg CLTB-36 in the named adjuvant; boosters at 2, 4 and 6 weeks
[2] = adjuvant BAY R1005, 100 μg peptide per dose (CLTB-36 20 μg)
[3] = adjuvant CFA, 100 μg peptide per dose (CLTB-36 20 μg)
[4] = adjuvant TPC, 100 μg peptide per dose (CLTB-36 20 μg)
[5] = adjuvant alum, 100 μg peptide per dose (CLTB-36 20 μg)
[6] = peptide in PBS (no adjuvant), 100 μg peptide per dose (CLTB-36 20 μg)
[7] = adjuvant OTH, 100 μg peptide per dose (CLTB-36 20 μg)
[8] = Table 3, adjuvant BAY R1005 + alum, 100 μg peptide per dose

Molecule: CSNNPTCWAICKRIPNKKPGKKT [RSV-G2]
- Peptide-Specific Antibody Titre [1, 2]: 3,200
- Peptide-Specific Antibody Titre [1, 3]: 128,000
- Peptide-Specific Antibody Titre [1, 4]: 1,600
- Peptide-Specific Antibody Titre [1, 5]: 31,500
- Peptide-Specific Antibody Titre [1, 6]: 1,280

Molecule: PQPGPQPPQPPQPQPEAPAPQPPC [69K-P1]
- Peptide-Specific Antibody Titre [1, 2]: 32,500
- Peptide-Specific Antibody Titre [1, 3]: 10,000
- Peptide-Specific Antibody Titre [1, 4]: 1,600
- Peptide-Specific Antibody Titre [1, 5]: 32,500
- Peptide-Specific Antibody Titre [1, 6]: 800

Molecule: TVGKKTYQVEACCSNLSYVKFGM [TBP2-3]
- Peptide-Specific Antibody Titre [1, 2]: 32,500
- Peptide-Specific Antibody Titre [1, 3]: 12,500
- Peptide-Specific Antibody Titre [1, 5]: 43,333
- Peptide-Specific Antibody Titre [1, 6]: 400

Molecule: PDPGDLVEYIMNYTGNQQSRWGLGSPNCHGPDWASPVCQRHSP [RV-EP27]
- Peptide-Specific Antibody Titre [1, 3]: 128,000
- Peptide-Specific Antibody Titre [1, 7]: 25,600
- Peptide-Specific Antibody Titre [1, 5]: 12,800
- Peptide-Specific Antibody Titre [1, 6]: 400

Molecule: CC(=O)O.CCCCCCCCCCCCCCCCCCN(C(=O)CCCCCCCCCCC)[C@@H]1O[C@H](CO)[C@@H](O)[C@H](O)[C@H]1NC(=O)[C@@H](N)CC(C)C [BAY R1005, N-(2-deoxy-2-L-leucylamino-β-D-glucopyranosyl)-N-octadecyldodecanamide acetate]
- Average titers against CLTB-36 (CLTB-36): 62,500
- Average titers against CLTB-56 (CLTB-56): 4,333

Molecule: NQITSALSTQQEFRDLKKYLPSKDKSVVSLQDRAC [HIBP1-5E]
- Peptide-Specific Antibody Titre [1, 2]: 32,500
- Peptide-Specific Antibody Titre [1, 3]: 312,500
- Peptide-Specific Antibody Titre [1, 4]: 1,600
- Peptide-Specific Antibody Titre [1, 5]: 8,333
- Peptide-Specific Antibody Titre [1, 6]: 200

Molecule: IKEIDESESEDYAKEGFRAP [PSP-AA]
- Peptide-Specific Antibody Titre [1, 3]: 12,500
- Peptide-Specific Antibody Titre [1, 5]: 1,600
- Peptide-Specific Antibody Titre [1, 6]: 200

Molecule: PIVNKQSCSISNIETVIEFQQ [RSV-FND2]
- Peptide-Specific Antibody Titre [1, 8]: 25,600
- Peptide-Specific Antibody Titre ([1]; Table 3, adjuvant BAY R1005, 100 μg peptide per dose): 10,000
- Peptide-Specific Antibody Titre ([1]; Table 3, adjuvant alum, 100 μg peptide per dose): 7,800
- Peptide-Specific Antibody Titre [1, 2]: 10,000
- Peptide-Specific Antibody Titre [1, 3]: 12,800
- Peptide-Specific Antibody Titre [1, 7]: 6,400
- Peptide-Specific Antibody Titre [1, 4]: 3,200
- Peptide-Specific Antibody Titre [1, 5]: 7,800
- Peptide-Specific Antibody Titre [1, 6]: 400

Molecule: GPKEPFRDYVDRFYKNTRQSTPIGLGQALYTTRG [CLTB-76]
- Peptide-Specific Antibody Titre [1, 2]: 45,833
- Peptide-Specific Antibody Titre [1, 3]: 625,000
- Peptide-Specific Antibody Titre [1, 7]: 6,400
- Peptide-Specific Antibody Titre [1, 4]: 3,200
- Peptide-Specific Antibody Titre [1, 5]: 9,166
- Peptide-Specific Antibody Titre [1, 6]: 1,833

Molecule: TKQRQNKPPSKPNNDFHFEVFNFVPC [RSV-G1]
- Peptide-Specific Antibody Titre [1, 2]: 31,500
- Peptide-Specific Antibody Titre [1, 3]: 315,000
- Peptide-Specific Antibody Titre [1, 4]: 6,400
- Peptide-Specific Antibody Titre [1, 5]: 128,000
- Peptide-Specific Antibody Titre [1, 6]: 1,600

Molecule: QSYSIMSIIKEEVLAYAVQLPLPLYGVIDTP [RSV-F]
- Peptide-Specific Antibody Titre [1, 8]: 128,000
- Peptide-Specific Antibody Titre [1, 2]: 3,850
- Peptide-Specific Antibody Titre [1, 3]: 6,400
- Peptide-Specific Antibody Titre [1, 7]: 3,200
- Peptide-Specific Antibody Titre [1, 4]: 1,600
- Peptide-Specific Antibody Titre [1, 5]: 32,000
- Peptide-Specific Antibody Titre [1, 6]: 500

Molecule: GPKEPFRDYVDRFYKNRKRIHIGPGRAFYTTKN [CLTB-36]
- Peptide-Specific Antibody Titre [1, 2]: 72,800
- Peptide-Specific Antibody Titre [1, 3]: 256,000
- Peptide-Specific Antibody Titre [1, 7]: 6,400
- Peptide-Specific Antibody Titre [1, 4]: 3,200
- Peptide-Specific Antibody Titre [1, 5]: 10,000
- Peptide-Specific Antibody Titre [1, 6]: 400

Molecule: GPKEPFRDYVDRFYKNTRKRIRIQRGGRAFVTIGK [CLTB-72]
- Peptide-Specific Antibody Titre [1, 2]: 45,800
- Peptide-Specific Antibody Titre [1, 3]: 312,500
- Peptide-Specific Antibody Titre [1, 7]: 6,400
- Peptide-Specific Antibody Titre [1, 4]: 3,200
- Peptide-Specific Antibody Titre [1, 5]: 37,500
- Peptide-Specific Antibody Titre [1, 6]: 2,333
